Assays:
Format in all cases: in vivo
Poa annua (POAAN) = test: Herbicidal early post-emergence action (Table A3); conditions: 1900 g/ha; scored visually 9 to 12 days after treatment; 100% = plants have died, 0% = like control plants
Experimental: (§1) Seeds of monocotyledonous and dicotyledonous weed plants were placed in 96-well microtiter plates in quartz sand and grown in a climatized chamber under controlled growth conditions. 5 to 7 days after sowing, the test plants were treated at the cotyledon stage. The compounds according to the invention, formulated in the form of emulsion concentrates (EC), were applied with a water application rate of the equivalent of 2200 liters per hectare. After the test plants had been left to stand in the climatized chamber for 9 to 12 days under optimum growth conditions, the effect of the preparations was scored visually in comparison to untreated controls. For example, 100% activity=the plants have died, 0% activity=like control plants. Tables A1 to A8 below show the effects of selected compounds of the general formula (I) according to Table 1 on various harmful plants and an application rate corresponding to 1900 g/ha, which were obtained by the experimental procedure mentioned above.

[1] = test system: Diplotaxis tenuifolia (DIPTE); test: Herbicidal early post-emergence action (Table A5); conditions: 1900 g/ha; scored visually 9 to 12 days after treatment; 100% = plants have died, 0% = like control plants
Experimental: as §1

Agrostis tenuis (AGSTE) = test: Herbicidal early post-emergence action (Table A1); conditions: 1900 g/ha; scored visually 9 to 12 days after treatment; 100% = plants have died, 0% = like control plants
Experimental: as §1

[2] = test system: harmful plants AGSTE, DIPTE, LOLPE, MATCH, POAAN, SETVI, STEME and VERPE; test: Herbicidal early post-emergence action, summary of Tables A1-A8; conditions: application rate of 1900 g of active ingredient per hectare; summary in words
Experimental: as §1, with “plants.” for “plants. Tables A1 to A8 below show the effects of selected compounds of the general formula (I) according to Table 1 on various harmful plants and an application rate corresponding to 1900 g/ha, which were obtained by the experimental procedure mentioned above.”
Tables A1 to A8 below show the effects of selected compounds of the general formula (I) according to Table 1 on various harmful plants and an application rate corresponding to 1900 g/ha, which were obtained by the experimental procedure mentioned above.
As the results of Tables A1-A8 show, compounds no.

Lolium perenne (LOLPE) = test: Herbicidal early post-emergence action (Table A2); conditions: 1900 g/ha; scored visually 9 to 12 days after treatment; 100% = plants have died, 0% = like control plants
Experimental: as §1

[3] = test system: wheat (TRZAS, var. Triso); test: Pre-emergence crop plant compatibility (Table E1); conditions: dosage 80 g/ha, scored after about 3 weeks, 0% = like control plants
Source text: (§2) Seeds of monocotyledonous and dicotyledonous crop plants were placed in plastic or organic plant pots and covered with soil. The compounds of the invention, formulated in the form of wettable powders (WP) or as emulsion concentrates (EC), were then applied to the surface of the covering soil as aqueous suspension or emulsion with addition of 0.5% additive at a water application rate equivalent to 600 l/ha (converted). After the treatment, the pots were placed in a greenhouse and kept under good growth conditions for the test plants. After about 3 weeks, the effect of the preparations was scored visually in comparison with untreated controls as percentages. For example, 100% activity=the plants have died, 0% activity=like control plants.

[4] = test system: corn (ZEAMX, var. Aventura); test: Pre-emergence crop plant compatibility (Table E1); conditions: dosage 80 g/ha, scored after about 3 weeks, 0% = like control plants
Source text: as §2

[5] = test system: soybean (GLXMA, var. Sultana); test: Pre-emergence crop plant compatibility (Table E1); conditions: dosage 80 g/ha, scored after about 3 weeks, 0% = like control plants
Source text: as §2

[6] = test system: Matricaria chamonilla (MATCH); test: Herbicidal early post-emergence action (Table A6); conditions: 1900 g/ha; scored visually 9 to 12 days after treatment; 100% = plants have died, 0% = like control plants
Experimental: as §1

Setaria viridis (SETVI) = test: Herbicidal early post-emergence action (Table A4); conditions: 1900 g/ha; scored visually 9 to 12 days after treatment; 100% = plants have died, 0% = like control plants
Experimental: as §1

Veronica persica (VERPE) = test: Herbicidal early post-emergence action (Table A8); conditions: 1900 g/ha; scored visually 9 to 12 days after treatment; 100% = plants have died, 0% = like control plants
Experimental: as §1

Stellaria media (STEME) = test: Herbicidal early post-emergence action (Table A7); conditions: 1900 g/ha; scored visually 9 to 12 days after treatment; 100% = plants have died, 0% = like control plants
Experimental: as §1

Structure (SMILES) | Early post-emergence effect against Poa annua (POAAN) (Poa annua (POAAN)) [%] | Early post-emergence effect against Agrostis tenuis (AGSTE) (Agrostis tenuis (AGSTE)) [%] | herbicidal activity against the harmful plants of Tables A1-A8 in early post-emergence treatment [2] | further results
Cc1cc(-c2ccccc2Oc2ncc(Cl)cc2F)ncn1 [Example 1-109] | 100 | 80 | very good herbicidal activity | Early post-emergence effect against Diplotaxis tenuifolia (DIPTE) [1]: 80%
Cc1cc(C)c(-c2cc(C(F)F)no2)c(Oc2ccc(Cl)cn2)c1 [Example 1-78] | 100 | 100 | very good herbicidal activity | Early post-emergence effect against Lolium perenne (LOLPE) (Lolium perenne (LOLPE)): 80%
FC(F)c1cc(-c2ccccc2Oc2ncc(Cl)cn2)on1 [US 2016/ 333000 No. 53] |  |  |  | Crop plant compatibility in pre-emergence, TRZAS (damage to wheat) [3]: 20%; Crop plant compatibility in pre-emergence, ZEAMX (damage to corn) [4]: 50%; Crop plant compatibility in pre-emergence, GLXMA (damage to soybean) [5]: 80%
Cn1nc(C(F)F)cc1-c1cc(F)ccc1Oc1ccc(Cl)cn1 [Example 1-32] |  | 80 | very good herbicidal activity | Early post-emergence effect against Diplotaxis tenuifolia (DIPTE) [1]: 80%
Cc1ccc(Oc2ccccc2-c2cccc(C(F)(F)F)n2)nc1 [Example 1-51] |  |  | very good herbicidal activity | Early post-emergence effect against Matricaria chamonilla (MATCH) [6]: 80%
FC(F)(F)c1cc(-c2ccccc2Oc2ccc(Cl)cn2)on1 [Example 1-113] | 100 | 100 | very good herbicidal activity | Early post-emergence effect against Matricaria chamonilla (MATCH) [6]: 80%
Cc1cc(F)c(-c2cc(C(F)F)no2)c(Oc2ccc(Cl)cn2)c1 [Example 1-88] | 100 | 100 | very good herbicidal activity | Early post-emergence effect against Setaria viridis (SETVI) (Setaria viridis (SETVI)): 80%
Fc1ccc(Oc2cccc(F)c2-c2cc(C(F)F)no2)nc1 [Example 1-41] | 100 | 80 | very good herbicidal activity | 
Cc1cc(-c2ccccc2Oc2ccc(Cl)cn2)ncn1 [Example 1-108] | 80 | 80 | very good herbicidal activity | Early post-emergence effect against Matricaria chamonilla (MATCH) [6]: 80%
FC(F)(F)c1cncc(-c2ccccc2Oc2ccc(Cl)cn2)c1 [Example 1-73] | 80 | 100 | very good herbicidal activity | 
Fc1cc(Cl)cnc1Oc1ccccc1-c1cc(C(F)(F)F)no1 [Example 1-112] | 100 | 100 | very good herbicidal activity | Early post-emergence effect against Matricaria chamonilla (MATCH) [6]: 80%
Cn1nc(-c2c(F)cccc2Oc2ncccc2F)cc1C(F)F [Example 1-84] |  |  | very good herbicidal activity | Early post-emergence effect against Veronica persica (VERPE) (Veronica persica (VERPE)): 80%
Fc1cccc(Oc2ncc(Cl)cn2)c1-c1cc(C(F)F)no1 [US 2016/ 333000 No. 144] |  |  |  | Crop plant compatibility in pre-emergence, TRZAS (damage to wheat) [3]: 70%; Crop plant compatibility in pre-emergence, ZEAMX (damage to corn) [4]: 30%; Crop plant compatibility in pre-emergence, GLXMA (damage to soybean) [5]: 100%
Fc1cc(Cl)cnc1Oc1ccccc1-c1ccc(C(F)(F)F)cn1 [Example 1-66] | 80 | 100 | very good herbicidal activity | 
Fc1cccnc1Oc1cccc(F)c1-c1cc(C(F)F)on1 [Example 1-14] |  |  | very good herbicidal activity | Early post-emergence effect against Diplotaxis tenuifolia (DIPTE) [1]: 80%
Fc1cccc(Oc2ncc(C(F)(F)F)cc2Cl)c1-c1cc(C(F)(F)F)on1 [Example 1-5] |  |  | very good herbicidal activity | Early post-emergence effect against Diplotaxis tenuifolia (DIPTE) [1]: 80%
CSc1cccc(Oc2ccc(Cl)cn2)c1-c1cc(C(F)F)no1 [Example 1-56] | 100 | 100 | very good herbicidal activity | 
FC(F)(F)c1cccc(-c2ccccc2Oc2ccc(Cl)cn2)n1 [Example 1-49] |  |  | very good herbicidal activity | Early post-emergence effect against Setaria viridis (SETVI) (Setaria viridis (SETVI)): 100%; Early post-emergence effect against Stellaria media (STEME) (Stellaria media (STEME)): 80%
Fc1cc(Cl)cnc1Oc1ccccc1-c1cc(C(F)(F)F)ccn1 [Example 1-69] | 100 | 100 | very good herbicidal activity | 
Fc1cccc(Oc2ccccn2)c1-c1cc(C(F)F)on1 [Example 1-8] |  | 80 | very good herbicidal activity | Early post-emergence effect against Diplotaxis tenuifolia (DIPTE) [1]: 80%

Reference: patent US12052991B2, “Substituted pyridinyloxybenzenes and salts thereof and use thereof as herbicidal agents” (Bayer Aktiengesellschaft, priority 2018, dated 2024)
